Assay results: US9511074B2, “Methods of treating disorders associated with protein polymerization” (UNIVERSITY OF PITTSBURGH—OF THE COMMONWEALTH SYSTEM OF …, priority 2009, dated 2016)

Tests used:
LC3 = LC3 conversion in the HTO/Z cell line by immunoblot; type: cell-based, human; settings: with or without lysosomal enzyme inhibitors
Method: For experiments in which proteasomal inhibitors were used, MG132 was used at 30 μM and lactacystin at 10 μM for the last 6 hours of the incubation with CBZ or control. Cells that were incubated with MG132 or lactacystin alone served as control to validate that the proteasome was inhibited. For investigation of LC3 conversion, lysosomal inhibitors (E64D and pepstatin A at 20 μg/ml) were added to the medium for the last 4 hours of the incubation with CBZ or control. […] If the number of separate experiments done in the cell line models is not specifically indicated in the text or figure legend, at least 3 separate experiments were done in each case.
For immunoblot analysis to detect AT, GAPDH or LC3, cells were lysed in 50 mM Tris-HCl, 150 mM NaCl, 1% NP-40, pH 8.0. Protein levels were quantified using the BCA protein assay (Pierce Biotechnology, Rockford, Ill.). 10-50 μg samples were loaded onto 7.5% precast gels. PVDF membranes were blocked in TBS, 0.5% Tween 20 (TBST), 5% milk and then incubated with primary antibody in 5% milk TBST solution. Horseradish peroxidase anti-goat Ig or anti-mouse Ig (Jackson Labs, Bar Harbor, Me.) were used as secondary antibodies in TBST. Blots were visualized with Super Signal West Dura or West Femto from Pierce.

[1] = system: AT Saar in the HTO/Saar cell line; assay: Levels of AT Saar variant in the HTO/Saar cell line; type: cell-based, human; settings: FIG. 3D
From the text: Cell Lines The human epidermal HeLa cell line with doxycycline-regulated expression of ATZ (HTO/Z) has been described previously (1). HTO/M and HTO/Saar are HeLa cell lines with doxycycline-regulated expression of wild type AT and the AT Saar variant, respectively (1). A murine embryonic fibroblast cell line (MEF) with targeted disruption of Atg5 (2) was engineered for stable expression of ATZ using the previously described pRc/RSV-ATZ expression plasmid (3). A wild type MEF cell line was also engineered for stable expression of ATZ in the same way to serve as control. For experiments with CBZ, the inducible cell lines were cultured in the absence of doxycycline for at least 4 weeks for maximal expression of AT. The cells were then subcultured into separate monolayers in fresh complete growth medium and incubated for 48 hours in the absence or presence of CBZ or rapamycin (RAP). CBZ or RAP were added to the growth medium. The duration of incubation with CBZ was determined to be optimal at 48 hours based on experiments in which the duration was varied from 12 to 72 hours. Doses of CBZ were based on previous studies of its effects in cell lines (5,6). […]
For immunoblot analysis to detect AT, GAPDH or LC3, cells were lysed in 50 mM Tris-HCl, 150 mM NaCl, 1% NP-40, pH 8.0. Protein levels were quantified using the BCA protein assay (Pierce Biotechnology, Rockford, Ill.). […]

ATZ in the liver = assay: Hepatic load of ATZ in vivo in PiZ×GFP-LC3 mice (immunoblot, globule histology); parameters: species or system mouse
From the text: Transgenic Mice PiZ mice that have been bred into the C57/BL6 background have been described previously (1). For the second and third series of experiments with CBZ we used PiZ mice that were re-derived onto the FVB/N background for a move into a new animal facility. The transgene that was used to generate the PiZ mouse is a genomic fragment of DNA that contains the coding regions of the ATZ gene together with introns and ˜2 kilobases of upstream and downstream flanking regions (10). […] In this perspective it is not an exact phenocopy of the classical form of AT deficiency. In particular it cannot be a model for the loss-of-function mechanisms associated with the classical form of AT deficiency. It is known to have abundant expression of ATZ in hepatocytes and other cell types that express ATZ in humans (11). In the liver there are abundant ATZ-containing intrahepatocytic globules and inflammation that is characteristic of what is seen in the human liver (11,12). […] Taken together, these observations indicate that the PiZ mouse is an appropriate model for the gain-of-toxic function mechanism that is responsible for liver damage in the classical form of AT deficiency. Indeed, the fact that these mice are endowed with endogenous AT function and therein normal levels of AT in the serum and body fluids make them an even more ‘pure’ model for liver damage by gain-of-toxic function. PiZ×GFP-LC3 mice, which generated green fluorescent autophagosomes, have been described previously (2). PiZ×IKKβ.hep were generated by mating of PiZ to IKKβ.hep, which has conditional hepatocyte-specific disruption of NF.B activation (M. Karin, 17). There is increased injury in the liver of these mice as evidenced by the hepatic hydroxyproline content, 153.3% of that in the PiZ mouse (FIG. 7).
Histology Sections of liver tissue were stained with hematoxylin and eosin, PAS, PAS after diastase treatment, TUNEL, PCNA, Ki67 and Sirius Red using standard techniques (18). Previous methods for staining with antibody to smooth muscle actin were used (19). Each was examined by the pathologist (GM) who was completely blinded to the experimental protocol. […] The number of inflammatory nodules, AT-containing globules and autophagosomes were each quantified blindly by counting cells in 6 microscopic fields of 10 different sections for each liver. The number of nuclei, as determined by Hoechst staining, was used to exclude the possibility that different numbers of cells were counted in liver sections from mice treated with CBZ as compared to controls. Hepatic hydroxyproline concentration was determined by a well-established protocol (20,21). […]
For immunoblot on liver, the liver was snap frozen in liquid nitrogen and stored at −80° C. […] Total protein concentration was measured by BCA assay (Pierce). […]

[2] = PiZ×GFP-LC3 mice, 250 mg kg-1 day-1 for 2 weeks by gavage

Compound: NC(=O)N1c2ccccc2C=Cc2ccccc21 [CBZ, 5H-dibenz [b,f]azepine-5-carboxamide]
- LC3-II to LC3-I ratio (LC3): increased in a dose-dependent manner
- levels of AT Saar (soluble fraction) [1]: degraded by CBZ in a manner almost identical to that of ATZ
- intrahepatocytic ATZ-containing globules (ATZ in the liver; [2]): marked decrease
- total, insoluble, and soluble ATZ in the liver (ATZ in the liver; [2]): marked decrease
- decrease in globule-containing hepatocytes, factor (ATZ in the liver; quantitative morphometry, 250 mg kg-1 day-1 for 2 weeks, P<0.001): 3.36
